Source: US20020160986A1, “Compounds having activity as inhibitors of cytochrome P450RAI” (priority 2000, published 2002)
Read-outs that look alike come from different tables or passages of the source.

Experiments:
[1] = biological target: T1, RARα (Homo sapiens, UniProt P10276); assay: ligand binding assay, RARα; settings: read-out: RAR α Kd
T1 sequence (P10276 1-462): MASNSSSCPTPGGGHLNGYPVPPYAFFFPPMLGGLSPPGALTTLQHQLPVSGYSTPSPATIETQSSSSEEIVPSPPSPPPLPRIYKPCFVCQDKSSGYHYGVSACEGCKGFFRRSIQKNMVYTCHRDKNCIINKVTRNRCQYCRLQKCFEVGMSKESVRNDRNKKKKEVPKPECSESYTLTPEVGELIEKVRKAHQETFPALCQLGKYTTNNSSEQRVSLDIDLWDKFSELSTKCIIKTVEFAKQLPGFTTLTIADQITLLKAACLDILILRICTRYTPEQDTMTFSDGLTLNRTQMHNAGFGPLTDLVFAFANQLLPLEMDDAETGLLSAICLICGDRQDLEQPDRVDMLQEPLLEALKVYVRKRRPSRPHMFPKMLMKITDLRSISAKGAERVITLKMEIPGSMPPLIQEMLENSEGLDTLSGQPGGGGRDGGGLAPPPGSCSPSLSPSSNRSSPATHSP
Text: (§1) Assays described below measure the ability of a compound to bind to, and/or activate various retinoid receptor subtypes. When in these assays a compound binds to a given receptor subtype and activates the transcription of a reporter gene through that subtype, then the compound is considered an agonist of that receptor subtype. […] In the below described assays the ability of the compounds to bind to RAR60 , RAR62 , RARγ, RXR60 , RXR62 , and RXRγ receptors, and the ability or inability of the compounds to activate transcription of a reporter gene through these receptor subtypes can be tested.
A holoreceptor transactivation assay and a ligand binding assay which measure the antagonist/agonist like activity of the compounds of the invention, or their ability to bind to the several retinoid receptor subtypes, respectively, are described in published PCT Application No. WO WO93/11755 (particularly on pages 30-33 and 37-41) published on Jun. 24, 1993, the specification of which is also incorporated herein by reference. A detailed experimental procedure for holoreceptor transactivations has been described by Heyman et al. Cell 68,397-406, (1992); Allegretto et al. J. Biol. Chem. 268,26625-26633, and Mangelsdorf et al. The Retinoids: Biology, Chemistry and Medicine, pp 319-349, Raven Press Ltd., New York, which are expressly incorporated herein by reference. […]

[2] = biological target: T2, P450RAI-1 stably transfected HeLa cells (Homo sapiens, UniProt O43174); assay: P450RAI-1 cell-based inhibitor assay; settings: inhibition of all-trans-RA metabolism, [3H]-RA, 3 hours at 37° C.; read-out: P450RAI INHIBITION DATA INTACT HELA IC50
T2 construct: expressed in transfected cells; host or cells: HeLa cells, stably transfected, hygromycin selection
T2 sequence (O43174 1-497): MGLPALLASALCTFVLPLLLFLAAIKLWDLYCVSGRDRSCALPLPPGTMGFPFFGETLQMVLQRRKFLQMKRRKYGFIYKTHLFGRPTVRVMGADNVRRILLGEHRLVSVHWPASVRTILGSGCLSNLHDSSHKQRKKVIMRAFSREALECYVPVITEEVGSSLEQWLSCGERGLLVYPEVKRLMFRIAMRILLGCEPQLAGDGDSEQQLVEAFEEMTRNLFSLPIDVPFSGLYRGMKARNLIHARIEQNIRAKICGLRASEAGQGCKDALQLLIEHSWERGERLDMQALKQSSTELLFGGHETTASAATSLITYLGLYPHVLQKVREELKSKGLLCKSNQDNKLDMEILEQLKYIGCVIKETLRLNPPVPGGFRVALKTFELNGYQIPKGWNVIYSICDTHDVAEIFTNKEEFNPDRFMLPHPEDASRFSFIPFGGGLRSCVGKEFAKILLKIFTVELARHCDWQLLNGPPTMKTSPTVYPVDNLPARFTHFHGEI
Description: P450RAI-1 Cell-Based Inhibitor Assay:
P450RAI -1 stably transfected HeLa cells are maintained in […] tissue culture dishes in Modified Eagle's Medium (MEM) containing 10% Fetal Bovine Serum (FBS) and 100 μg/ml hygromycin. Exponentially growing cells are harvested by incubating in trypsin. Cells are then washed with 1× Phosphate Buffered Saline (PBS) and plated in a 48-well plate at 5×10^5 cells in 0.2 ml MEM medium containing 10% FBS and 0.05 μCi [^3H]-RA in the presence or absence of increasing concentrations of the test compounds. The compounds are diluted in 100% DMSO and then added in triplicate wells at either 10, 1 or 0.1 μM final concentration. As a positive control for RA metabolism inhibition, cells are also incubated with ketoconazole at 100, 10 and 1 μM. Cell are incubated for 3 hours at 37° C. […] The water soluble radioactivity is quantified using a β-scintillation counter. IC50 values represent the concentration of inhibitor required to inhibit all-trans-RA metabolism by 50 percent and are derived manually from log-transformed data.

[3] = biological target: T3, RARβ (Homo sapiens, UniProt P10826); assay: ligand binding assay, RARβ; settings: read-out: RAR β Kd
T3 sequence (P10826 1-455): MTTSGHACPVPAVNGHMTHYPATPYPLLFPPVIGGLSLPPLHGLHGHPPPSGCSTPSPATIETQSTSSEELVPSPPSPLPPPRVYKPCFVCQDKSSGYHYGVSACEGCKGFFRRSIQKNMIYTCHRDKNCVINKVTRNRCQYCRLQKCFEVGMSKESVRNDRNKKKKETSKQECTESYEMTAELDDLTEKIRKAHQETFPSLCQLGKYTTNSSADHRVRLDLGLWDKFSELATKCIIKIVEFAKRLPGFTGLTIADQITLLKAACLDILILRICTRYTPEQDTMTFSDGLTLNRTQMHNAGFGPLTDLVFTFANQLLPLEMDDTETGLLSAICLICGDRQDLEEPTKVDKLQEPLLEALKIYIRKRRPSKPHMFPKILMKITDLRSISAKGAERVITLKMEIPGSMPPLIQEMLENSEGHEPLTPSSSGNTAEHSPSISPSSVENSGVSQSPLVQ
Text: as §1
A holoreceptor transactivation assay and a ligand binding assay which measure the antagonist/agonist like activity of the compounds of the invention, or their ability to bind to the several retinoid receptor subtypes, respectively, are described in published PCT Application No. WO WO93/11755 (particularly on pages 30-33 and 37-41) published on Jun. 24, 1993, the specification of which is also incorporated herein by reference. […] The results obtained in this assay are expressed in EC50 numbers, as they are also in the chimeric receptor transactivation assay. The results of ligand binding assay are expressed in Kd numbers. (See Cheng et al. Biochemical Pharmacology Vol. 22 pp 3099-3108, expressly incorporated herein by reference.)

[4] = system: skin of hairless mice; settings: topical in acetone, once daily days 1 through 5, mean ±SD, range 0-21
Text: This irritation is a direct result of activation of the RAR nuclear receptors. Analysis of retinoid topical irritation is also a highly reproducible method of determining in vivo retinoid potency. The SKH1-hrBR or hairless mouse provides a convenient animal model of topical irritation, since retinoid-induced skin flaking and abrasion can be readily scored by eye (Standeven et al., “Specific antagonist of retinoid toxicity in mice.” Toxicol. Appl. Pharmacol., 138:169-175, (1996); Thacher, et al., “Receptor specificity of retinoid-induced hyperplasia. Effect of RXR-selective agonists and correlation with topical irritation”. J. Pharm. Exp. Ther., 282:528-534, (1997)).
Female hairless mice (Crl:SKH1-hrBR), 5-7 weeks old, were obtained from Charles River Breeding Labs (Wilmington, Mass.). […]
The mice were weighed daily and the dorsal skin was graded daily using separate semi-quantitative scales to determine flaking and abrasion. […]
Flaking onset score (2) and average severity score (3) are summed and divided by two. […] Composite flaking scores are calculated for each individual animal in a group, averaged, and rounded to the nearest integer. […]
Abrasion onset score (5) and average severity score (6) are summed and divided by two. […] Composite abrasion scores are calculated for each individual animal in a group, averaged and rounded to the nearest integer. […]

Compound | Kd [1] [µM] | IC50 [2] [µM] | Kd [3] [µM] | Cutaneous Toxicity Score (Blackjack Score) ([4]; 100 nmole (nmol/25 g)) | Cutaneous Toxicity Score (Blackjack Score) ([4]; 1000 nmole (nmol/25 g))
Cc1cc(C#Cc2ccc(CC(=O)O)cc2)ccc1Cn1ccnc1 [Compound 121, [4-(4-Imidazol-1-yl-methyl-3-methyl-phenylethynyl)-phenyl]-acetic acid] | > 10 | 0.18 | > 100 |  | 
CC1(C)CCC(=O)c2ccc(C#Cc3ccc(CC(=O)O)c(F)c3)cc21 [Compound 15, [2-Fluoro-4-(8.8-dimethyl-5-oxo-5,6,7,8-tetrahydro-naphthalene-2-yl-ethynyl)phenyl]-acetic acid] |  |  |  | 1 ± 1 | 5 ± 2
